# “And” between values parts separate entries of the source, which are not always exact repeats. Identical values can stand only once. “Also recorded” adds a separate entry of the source.
# Legend:
# [1] = test system: R493X progranulin; assay: Read-through of progranulin R493X nonsense mutation in transfected N2A cells (FLAG Western blot); type: cell-based, human; settings: for read-through of R493X progranulin (FLAG-positive bands in Western blot): N2A cells transfected with R493X progranulin, two concentrations of each compound; for read-through of R493X progranulin (FLAG-positive bands in Western blot) / read-through, FLAG band intensity as percentage of WT progranulin: 24 hours; for rescued R493X expression / read-through efficiency as % of wild-type progranulin (summary statement): N2A cell culture, conditions not restated; for read-through, FLAG band intensity as percentage of WT progranulin: dose response, maximal concentration 2000 μg/ml
# Excerpt: (§1) The WT progranulin plasmid with a C-terminal FLAG tag (pC-Flag-PGRN-WT) was purchased from Sino Biological Inc. (Cat. HG10826-CF). Three nonsense mutations, Q125X, R229X and R493X, were generated using Q5 site-directed mutagenesis kit (New England Biolabs Inc., Cat. E0554S) to introduce a single nucleotide substitution in the WT progranulin gene (FIG. 1A). The WT progranulin with an N-terminal HA tag (HA-PGRN) was also generated by subcloning using the p3xHA vector (58) and HindIII and BamHI sites.
# (§2) N2A cells were maintained in DMEM (Sigma, D5796) supplemented with 10% fetal bovine serum, 100 unit/mL penicillin, and 100 μg/mL streptomycin. Transient transfection was performed using Lipofectamine 2000 (Invitrogen, Life Technologies, Grand Island, N.Y., USA). […] was used for each well of 6-well plate unless otherwise described. After 6 hours transfection, fresh medium containing aminoglycoside at indicated concentrations was added to cells. Cells were applied to following experiments after exposed to drugs at certain time points. All cells were kept in a humidified incubator at 37° C. under 5% CO2/95% air.
# Eleven aminoglycosides were tested in this study: G418 (Sigma-Aldrich, Cat. 4727878001), gentamicin (Sigma-Aldrich, Cat. G1397), Kanamycin (Gold Biotechnology, Cat. K-120-25), Streptomycin (Sigma-Aldrich, Cat. S9137), Amikacin (Alta Aesar, Cat. J67496), Tobramycin (Alta Aesar, Cat. J62995), Apramycin (Sigma-Aldrich, Cat. A2024), Neomycin B (Sigma-Aldrich, Cat. N6386), Netilmicin (Alta Aesar, Cat. J66302), Paromomycin (Alta Aesar, Cat. J61274), Sisomicin (Sigma-Aldrich, Cat. S7796). PTC124 was purchased from Med Chem Express (Cat. 775304-57-9).
# Cells were lysed in RIPA buffer (Millipore Sigma, Cat. 20-188), centrifuged at 1000 g for 10 mins to remove debris, and then subjected to SDS electrophoresis. After electrophoresis, gels were proceeded for transferring onto nitrocellulose membranes. The membranes were then blocked with 5% milk in TBST (100 mM TRIS-HCl, pH7.5, 0.9% NaCl, 0.1% Tween-20) and incubated with indicated primary antibodies in the same solution. All immunoblotting images were acquired using a BioRad ChemiDoc MP system.
# (§3) WT progranulin and three plasmids each with a single nonsense mutation (Q125X, Y229X, or R493X) and a C-terminal Flag tag (FIG. 1A) were constructed. A full-length protein must be generated for the FLAG to be detected, thus a truncated progranulin will not be detected by FLAG Western blotting. If read-through of the progranulin PTC occurs, then progranulin will be detectable by FLAG Western blotting.
# R493X, which is the most common nonsense mutation in progranulin-mediated familial FTD (8, 31), was chosen to test whether aminoglycosides could induce read-through. N2A cells were transfected with the indicated plasmid, allowed to recover for 6 hours, and fresh media containing the aminoglycoside at the indicated concentrations was added to the cells for 24 hours. Cells were lysed and analyzed by Western blotting to determine the amount of progranulin protein. […] No signal was detected in lysate from cells transfected with R493X in the absence of any compounds, serving as a negative control. The FLAG-tagged WT progranulin was included as a positive control to define the expected progranulin-FLAG amount. […] It is noted that G418 induced a stronger effect than gentamicin.
# A series of G418 and gentamicin concentrations were tested to examine the dose response of the read-through effect. N2A cells were transfected with the R493X progranulin plasmid, allowed to recover for 6 hours, fresh media containing either G418 or gentamicin at 100, 500, 1000 or 2000 μg/ml was added to cells for 24 hours. Cells were then lysed and lysates analyzed by Western blotting. The read-through was dose-dependent with the highest progranulin-FLAG signal corresponding to the highest concentration of compound (FIG. 2A). […]
# [2] = test system: R493X progranulin; assay: as above; type: cell-based, human; settings: time course, 1000 μg/ml G418, 12 hours
# [3] = test system: R493X progranulin mRNA; assay: Full-length progranulin R493X mRNA level in N2A cells (qPCR); type: cell-based, human; settings: with G418 treatment, qPCR (FIG. 5)
# Procedure: N2A cells were exposed to G418 treatment for 24 hours with indicated concentrations after transfection. Primers specific for full length PGRN mRNA were used for qPCR. All results were normalized to full length WT progranulin in non-treated cells. N.S.: no significance. **, p<0.01; ***, p<0.001.
# Total RNA was extracted with Aurum total RNA mini kit (BioRad, Cat. 732-6820), and cDNA was generated with SuperScript III first-strand synthesis system for RT-PCR (Invitrogen, Cat. 18080-051). Quantitive PCR was performed using SYBR Green (ThermoScientific, Cat. 4309155). Beta-actin primers: forward 5′-AGAGCTATGAGCTGCCTGAC-3′ (SEQ ID NO: 1); reverse 5′-GGATGTCAACGTCACACTTC-3′(SEQ ID NO: 2). Primers used for full length progranulin mRNA (including flag encoding sequence) is: forward 5′-CGTGAAGGCTTGATCCTGCGAGA-3′ (SEQ ID NO: 3), reverse 5′-CTTATCGTCATCCTTGTAATC-3′ (SEQ ID NO: 4). Annealing temperature for both beta-actin and progranulin qPCR reaction were 60° C.
# In addition to inducing read-through, it has been reported that aminoglycosides can also stabilize mRNAs, which could enhance the read-through effect (35, 36). Therefore, qPCR was used to determine the mRNA levels in the absence and presence of G418.
# [4] = test system: R495X FUS; assay: Read-through of FUS R495X nonsense mutation in transfected N2A cells (FLAG Western blot); type: cell-based; settings: three concentrations, 24 hours
# Procedure: Examination of G418 on the R495X mutation of FUS responsible for familial ALS. WT or R495X FUS was tagged with FLAG at the N-terminus. N2A cells were transfected with WT or R495X FUS, allowed to recover, and treated with three concentrations of G418 for 24 hours. Cells were harvested and cell lysates were subjected to SDS-PAGE and Western analysis using anti-FLAG (top) and anti-actin (lower) antibodies. The slightly higher band is WT FUS and the lower band is R495X truncated FUS.
# as §2, with “air. […]” for “air.”
# (§4) Whether G418 or gentamicin could induce read-through of two additional progranulin nonsense mutations (Q125X or Y229X) and a FUS nonsense mutation R495X that has been identified in juvenile patients of the related neurodegenerative disease ALS was also tested.
# [5] = test system: Y229X progranulin; assay: Read-through of progranulin Y229X nonsense mutation in transfected N2A cells (FLAG Western blot); type: cell-based, human; settings: 24 hours
# Excerpt: as §1
# (§5) N2A cells were maintained in DMEM (Sigma, D5796) supplemented with 10% fetal bovine serum, 100 unit/mL penicillin, and 100 μg/mL streptomycin. […]
# as §3, §4
# [6] = test system: LAMB3 PTC; settings: reported (ref. 27); cited from earlier work
# [7] = test system: Q125X progranulin; assay: Read-through of progranulin Q125X nonsense mutation in transfected N2A cells (FLAG Western blot); type: cell-based, human; settings: 24 hours
# Excerpt: as §1, §5, §3, §4
compound,measurement,setting,value
CN[C@@H]1[C@@H](O[C@H]2O[C@H](CO)[C@@H](N)[C@H](O)[C@H]2O)OC2C[C@@H](N)[C@@H](O[C@H]3[C@H](O)[C@@H](O)[C@H](N)C[C@@H]3N)OC2[C@@H]1O (some centres unmarked) [apramycin],read-through of R493X progranulin (FLAG-positive bands in Western blot),[1],did not have any detectable read-through effect
CN[C@@H]1[C@@H](O)[C@@H](O[C@@H]2[C@@H](O)[C@H](O[C@H]3O[C@H]([C@@H](C)O)[C@@H](O)[C@H](O)[C@H]3N)[C@@H](N)C[C@H]2N)OC[C@]1(C)O [G418],rescued R493X expression / read-through efficiency as % of wild-type progranulin (summary statement),[1],~50%
same,"read-through, FLAG band intensity as percentage of WT progranulin",[1],33.8% and > 30%
same,read-through as % of the WT control,[2],≈ 5%
same,mRNA level of R493X as % of WT progranulin,[3],~60%
CCN[C@@H]1C[C@H](N)[C@@H](O[C@H]2OC(CN)=CC[C@H]2N)[C@H](O)[C@H]1O[C@H]1OC[C@](C)(O)[C@H](NC)[C@H]1O [netilmicin],read-through of R493X progranulin (FLAG-positive bands in Western blot),[1],did not have any detectable read-through effect
gentamicin,read-through of FUS R495X (full-length protein),[4],did not induce read-through
same,read-through of FUS R495X (full-length protein),[4]; listed as Gentamicin,did not induce readthrough
same,rescued R493X expression / read-through efficiency as % of wild-type progranulin (summary statement),[1],less than 10%
same,read-through of R493X progranulin (FLAG-positive bands in Western blot),[1],induced FLAG bands; also recorded: induced read-through
same,"read-through, FLAG band intensity as percentage of WT progranulin",[1],8.6%
same,read-through of Y229X progranulin (full-length protein by FLAG antibody),[5],did not induce read-through
same,read-through of Y229X progranulin (full-length protein by FLAG antibody),[5]; listed as Gentamicin,no readthrough effect
same,read-through of the LAMB3 PTC,[6],30-50%
same,read-through of Q125X progranulin (full-length protein by FLAG antibody),[7],did not induce read-through
same,read-through of Q125X progranulin (full-length protein by FLAG antibody),[7]; listed as Gentamicin,no readthrough effect
NC[C@@H]1O[C@H](O[C@H]2[C@@H](O)[C@H](O[C@@H]3[C@@H](O)[C@H](N)C[C@H](N)[C@H]3O[C@H]3O[C@H](CO)[C@@H](O)[C@H](O)[C@H]3N)O[C@@H]2CO)[C@H](N)[C@@H](O)[C@@H]1O [paromomycin],read-through of R493X progranulin (FLAG-positive bands in Western blot),[1],did not have any detectable read-through effect
O=C(O)c1cccc(-c2noc(-c3ccccc3F)n2)c1 [PTC124],read-through of R493X progranulin (FLAG-positive bands in Western blot),[1],did not have any detectable read-through effect
NC[C@@H]1O[C@H](O[C@H]2[C@@H](O)[C@H](O[C@@H]3[C@@H](O)[C@H](N)C[C@H](N)[C@H]3O[C@H]3O[C@H](CN)[C@@H](O)[C@H](O)[C@H]3N)O[C@@H]2CO)[C@H](N)[C@@H](O)[C@@H]1O [neomycin B],read-through of R493X progranulin (FLAG-positive bands in Western blot),[1],did not have any detectable read-through effect
[H]/N=C(/N)N[C@H]1[C@H](O)[C@@H](O)[C@H](O[C@@H]2O[C@@H](C)[C@](O)(C=O)[C@H]2O[C@@H]2O[C@@H](CO)[C@H](O)[C@@H](O)[C@@H]2NC)[C@@H](N/C(N)=N\[H])[C@@H]1O [streptomycin],read-through of R493X progranulin (FLAG-positive bands in Western blot),[1],did not have any detectable read-through effect
NCC[C@H](O)C(=O)N[C@@H]1C[C@H](N)[C@@H](O[C@H]2O[C@H](CN)[C@@H](O)[C@H](O)[C@H]2O)[C@H](O)[C@H]1O[C@H]1O[C@H](CO)[C@@H](O)[C@H](N)[C@H]1O [amikacin],read-through of R493X progranulin (FLAG-positive bands in Western blot),[1],did not have any detectable read-through effect
CN[C@@H]1[C@@H](O)[C@@H](O[C@@H]2[C@@H](O)[C@H](O[C@H]3OC(CN)=CC[C@H]3N)[C@@H](N)C[C@H]2N)OC[C@]1(C)O [sisomicin],read-through of R493X progranulin (FLAG-positive bands in Western blot),[1],did not have any detectable read-through effect
NC[C@H]1O[C@H](O[C@H]2[C@H](O)[C@@H](O[C@H]3O[C@H](CO)[C@@H](O)[C@H](N)[C@H]3O)[C@H](N)C[C@@H]2N)[C@H](N)C[C@@H]1O [tobramycin],read-through of R493X progranulin (FLAG-positive bands in Western blot),[1],did not have any detectable read-through effect
